This note sets out measurements from patent publication US20070254055A1, “Therapeutic Avenanthramide Compounds” (TRUSTEES OF TUFTS COLLEGE, priority 2003, published 2007).

The experiment has as its system COX-2. Put plainly: TNF-α induced COX-2 expression in HT29 cells, Western blot. Type of experiment: cell-based, human. As to conditions: 25 μM. As to the method: Western Blot Assay: HT-29 cells were seeded into 60 mm culture dishes and cultured to 70% confluence. Medium was changed from 10% to 1% FBS medium to minimize the effects of other growth-promoting substances normally contained in serum. For COX-2 expression studies, the cells were pre-treated with different concentrations of Avns oat extract and CH3-Avn-C for 1 hr followed by stimulation with 40 ng/ml of TNF-α for 23 hr. The medium was collected and kept at −80° C. for further analyzing prostaglandin E2 (PGE2) production. For analyzing the NFkB phosphorylation, the cells were pre-treated with different concentrations of Avns oat extract and CH3-Avn-C for 23 hr followed by stimulation with 40 ng/ml of TNF-α for 20 min. For determining the COX1 expression level, the cells were treated with different concentrations of Avns oat extract and CH3-Avn-C for 24 hr. To get the whole cell lysate for western, cells were harvested in 2× protein sample buffer by scraping the cells. […] Proteins bound to the primary antibodies were detected by the enhanced chemiluminescence (ECL) detection system and quantified by densitometric scanning.
Effect of Avns on COX-2 expression: HT29 cells express a low basal level of COX-2 protein. […] The expression of COX2 was measured by Western blotting. β-Actin expression level was used as a loading control. […]
(In western blotting, separated proteins are transferred to a membrane and probed.)

For `CS(=O)(=O)Nc1ccc([N+](=O)[O-])cc1OC1CCCCC1` [NS398], the “inhibition of COX2 expression” value amounted to 50%.
